From ChEMBL document CHEMBL1145222, “Synthesis and in vitro study of novel Mannich bases as antibacterial agents” (2005)

test system: Salmonella enterica subsp. enterica serovar Typhi; assay: Zone of inhibition of Salmonella typhae at compound concentration of 80 mg/mL; assay type: functional

| Structure (SMILES) | Inhibition [mm] |
| --- | --- |
| Nc1ccc(S(=O)(=O)Nc2ncccn2)cc1 [SULFADIAZINE] | 7.5 |
| Nc1ccc(S(N)(=O)=O)cc1 [SULFANILAMIDE] | 7.5 |
| COc1ccc(Cl)cc1C(=O)NCNc1ccc(S(=O)(=O)Nc2ncccn2)cc1 | 7 |
| COc1ccc(Cl)cc1C(=O)NCNc1ccc(S(=O)(=O)NN)cc1 | 7.5 |
| COc1ccc(Cl)cc1C(=O)NCN(c1ccccc1)c1ccccc1 | 7.5 |

test system: Klebsiella pneumoniae; assay: Zone of inhibition of Klebsiella pneumoniae at compound concentration of 40 mg/mL; assay type: functional

| Structure (SMILES) | Inhibition [mm] |
| --- | --- |
| Nc1ccc(S(=O)(=O)Nc2ncccn2)cc1 [SULFADIAZINE] | 12.5 |
| COc1ccc(Cl)cc1C(=O)NCNc1ccc(S(=O)(=O)Nc2ncccn2)cc1 | 7.5 |
| COc1ccc(Cl)cc1C(=O)NCNc1ccc(S(=O)(=O)NN)cc1 | 7 |
| COc1ccc(Cl)cc1C(=O)NCN(c1ccccc1)c1ccccc1 | 7 |

test system: Salmonella enterica subsp. enterica serovar Typhi; assay: Zone of inhibition of Salmonella typhae at compound concentration of 40 mg/mL; assay type: functional

| Structure (SMILES) | Inhibition [mm] |
| --- | --- |
| Nc1ccc(S(=O)(=O)Nc2ncccn2)cc1 [SULFADIAZINE] | 7 |
| Nc1ccc(S(N)(=O)=O)cc1 [SULFANILAMIDE] | 7 |
| COc1ccc(Cl)cc1C(=O)NCNc1ccc(S(=O)(=O)Nc2ncccn2)cc1 | 7 |
| COc1ccc(Cl)cc1C(=O)NCNc1ccc(S(=O)(=O)NN)cc1 | 7 |
| COc1ccc(Cl)cc1C(=O)NCN(c1ccccc1)c1ccccc1 | 7.5 |

test system: Pseudomonas aeruginosa; assay: Zone of inhibition of Pseudomonas aeruginosa at compound concentration of 160 mg/mL; assay type: functional

| Structure (SMILES) | Inhibition [mm] |
| --- | --- |
| Nc1ccc(S(N)(=O)=O)cc1 [SULFANILAMIDE] | 17.5 |
| COc1ccc(Cl)cc1C(=O)NCNc1ccc(S(=O)(=O)Nc2ncccn2)cc1 | 8.5 |
| COc1ccc(Cl)cc1C(=O)NCNc1ccc(S(=O)(=O)NN)cc1 | 8.5 |

test system: Escherichia coli; assay: Zone of inhibition Escherichia coli Escherichia coli at compound concentration of 80 mg/mL; assay type: functional

| Structure (SMILES) | Inhibition [mm] |
| --- | --- |
| COc1ccc(Cl)cc1C(=O)NCNc1ccc(S(=O)(=O)NN)cc1 | 7.5 |

test system: Klebsiella pneumoniae; assay: Zone of inhibition of Klebsiella pneumoniae at compound concentration of 160 mg/mL; assay type: functional

| Structure (SMILES) | Inhibition [mm] |
| --- | --- |
| Nc1ccc(S(=O)(=O)Nc2ncccn2)cc1 [SULFADIAZINE] | 15 |
| COc1ccc(Cl)cc1C(=O)NCNc1ccc(S(=O)(=O)Nc2ncccn2)cc1 | 8.5 |
| COc1ccc(Cl)cc1C(=O)NCNc1ccc(S(=O)(=O)NN)cc1 | 9.5 |
| COc1ccc(Cl)cc1C(=O)NCN(c1ccccc1)c1ccccc1 | 8 |

test system: Klebsiella pneumoniae; assay: Zone of inhibition of Klebsiella pneumoniae at compound concentration of 80 mg/mL; assay type: functional

| Structure (SMILES) | Inhibition [mm] |
| --- | --- |
| Nc1ccc(S(=O)(=O)Nc2ncccn2)cc1 [SULFADIAZINE] | 13.5 |
| COc1ccc(Cl)cc1C(=O)NCNc1ccc(S(=O)(=O)Nc2ncccn2)cc1 | 8 |
| COc1ccc(Cl)cc1C(=O)NCNc1ccc(S(=O)(=O)NN)cc1 | 7.5 |
| COc1ccc(Cl)cc1C(=O)NCN(c1ccccc1)c1ccccc1 | 7 |

test system: Escherichia coli; assay: Zone of inhibition Escherichia coli Escherichia coli at compound concentration of 160 mg/mL; assay type: functional

| Structure (SMILES) | Inhibition [mm] |
| --- | --- |
| COc1ccc(Cl)cc1C(=O)NCNc1ccc(S(=O)(=O)NN)cc1 | 8.5 |

test system: Escherichia coli; assay: Zone of inhibition of Escherichia coli at compound concentration of 40 mg/mL; assay type: functional

| Structure (SMILES) | Inhibition [mm] |
| --- | --- |
| Nc1ccc(S(=O)(=O)Nc2ncccn2)cc1 [SULFADIAZINE] | 8.5 |
| Nc1ccc(S(N)(=O)=O)cc1 [SULFANILAMIDE] | 16.5 |
| COc1ccc(Cl)cc1C(=O)NCNc1ccc(S(=O)(=O)Nc2ncccn2)cc1 | 8 |

test system: Staphylococcus aureus; assay: Zone of inhibition of Staphylococcus aureus at compound concentration of 80 mg/mL; assay type: functional

| Structure (SMILES) | Inhibition [mm] |
| --- | --- |
| Nc1ccc(S(=O)(=O)Nc2ncccn2)cc1 [SULFADIAZINE] | 7.5 |
| Nc1ccc(S(N)(=O)=O)cc1 [SULFANILAMIDE] | 22.5 |
| COc1ccc(Cl)cc1C(=O)NCNc1ccc(S(=O)(=O)Nc2ncccn2)cc1 | 11.5 |
| COc1ccc(Cl)cc1C(=O)NCNc1ccc(S(=O)(=O)NN)cc1 | 8.5 |

test system: Escherichia coli; assay: Zone of inhibition of Escherichia coli at compound concentration of 80 mg/mL; assay type: functional

| Structure (SMILES) | Inhibition [mm] |
| --- | --- |
| Nc1ccc(S(=O)(=O)Nc2ncccn2)cc1 [SULFADIAZINE] | 9.5 |
| Nc1ccc(S(N)(=O)=O)cc1 [SULFANILAMIDE] | 18 |
| COc1ccc(Cl)cc1C(=O)NCNc1ccc(S(=O)(=O)Nc2ncccn2)cc1 | 8.5 |

test system: Bacillus subtilis; assay: Zone of inhibition of Bacillus subtilis at compound concentration of 80 mg/mL; assay type: functional

| Structure (SMILES) | Inhibition [mm] |
| --- | --- |
| Nc1ccc(S(=O)(=O)Nc2ncccn2)cc1 [SULFADIAZINE] | 9.5 |
| Nc1ccc(S(N)(=O)=O)cc1 [SULFANILAMIDE] | 11.5 |
| COc1ccc(Cl)cc1C(=O)NCNc1ccc(S(=O)(=O)Nc2ncccn2)cc1 | 7 |
| COc1ccc(Cl)cc1C(=O)NCNc1ccc(S(=O)(=O)NN)cc1 | 7.5 |
| COc1ccc(Cl)cc1C(=O)NCN(c1ccccc1)c1ccccc1 | 7.5 |

test system: Escherichia coli; assay: Zone of inhibition of Escherichia coli at compound concentration of 160 mg/mL; assay type: functional

| Structure (SMILES) | Inhibition [mm] |
| --- | --- |
| Nc1ccc(S(=O)(=O)Nc2ncccn2)cc1 [SULFADIAZINE] | 12.5 |
| Nc1ccc(S(N)(=O)=O)cc1 [SULFANILAMIDE] | 20.5 |
| COc1ccc(Cl)cc1C(=O)NCNc1ccc(S(=O)(=O)Nc2ncccn2)cc1 | 9.5 |

test system: Pseudomonas aeruginosa; assay: Zone of inhibition of Pseudomonas aeruginosa at compound concentration of 80 mg/mL; assay type: functional

| Structure (SMILES) | Inhibition [mm] |
| --- | --- |
| Nc1ccc(S(N)(=O)=O)cc1 [SULFANILAMIDE] | 15.5 |
| COc1ccc(Cl)cc1C(=O)NCNc1ccc(S(=O)(=O)Nc2ncccn2)cc1 | 7.5 |
| COc1ccc(Cl)cc1C(=O)NCNc1ccc(S(=O)(=O)NN)cc1 | 8 |

test system: Bacillus subtilis; assay: Zone of inhibition of Bacillus subtilis at compound concentration of 160 mg/mL; assay type: functional

| Structure (SMILES) | Inhibition [mm] |
| --- | --- |
| Nc1ccc(S(=O)(=O)Nc2ncccn2)cc1 [SULFADIAZINE] | 13.5 |
| Nc1ccc(S(N)(=O)=O)cc1 [SULFANILAMIDE] | 13 |
| COc1ccc(Cl)cc1C(=O)NCNc1ccc(S(=O)(=O)Nc2ncccn2)cc1 | 7.5 |
| COc1ccc(Cl)cc1C(=O)NCNc1ccc(S(=O)(=O)NN)cc1 | 11.5 |
| COc1ccc(Cl)cc1C(=O)NCN(c1ccccc1)c1ccccc1 | 8 |

test system: Staphylococcus aureus; assay: Zone of inhibition of Staphylococcus aureus at compound concentration of 160 mg/mL; assay type: functional

| Structure (SMILES) | Inhibition [mm] |
| --- | --- |
| Nc1ccc(S(=O)(=O)Nc2ncccn2)cc1 [SULFADIAZINE] | 9.5 |
| Nc1ccc(S(N)(=O)=O)cc1 [SULFANILAMIDE] | 25 |
| COc1ccc(Cl)cc1C(=O)NCNc1ccc(S(=O)(=O)Nc2ncccn2)cc1 | 15 |
| COc1ccc(Cl)cc1C(=O)NCNc1ccc(S(=O)(=O)NN)cc1 | 11 |

test system: Bacillus subtilis; assay: Zone of inhibition of Bacillus subtilis at compound concentration of 40 mg/mL; assay type: functional

| Structure (SMILES) | Inhibition [mm] |
| --- | --- |
| Nc1ccc(S(=O)(=O)Nc2ncccn2)cc1 [SULFADIAZINE] | 8.5 |
| Nc1ccc(S(N)(=O)=O)cc1 [SULFANILAMIDE] | 10.5 |
| COc1ccc(Cl)cc1C(=O)NCNc1ccc(S(=O)(=O)Nc2ncccn2)cc1 | 7 |
| COc1ccc(Cl)cc1C(=O)NCNc1ccc(S(=O)(=O)NN)cc1 | 7 |
| COc1ccc(Cl)cc1C(=O)NCN(c1ccccc1)c1ccccc1 | 7.5 |

test system: Salmonella enterica subsp. enterica serovar Typhi; assay: Zone of inhibition of Salmonella typhae at compound concentration of 160 mg/mL; assay type: functional

| Structure (SMILES) | Inhibition [mm] |
| --- | --- |
| Nc1ccc(S(=O)(=O)Nc2ncccn2)cc1 [SULFADIAZINE] | 9 |
| Nc1ccc(S(N)(=O)=O)cc1 [SULFANILAMIDE] | 7.5 |
| COc1ccc(Cl)cc1C(=O)NCNc1ccc(S(=O)(=O)Nc2ncccn2)cc1 | 7.5 |
| COc1ccc(Cl)cc1C(=O)NCNc1ccc(S(=O)(=O)NN)cc1 | 8 |
| COc1ccc(Cl)cc1C(=O)NCN(c1ccccc1)c1ccccc1 | 8.5 |

test system: Pseudomonas aeruginosa; assay: Zone of inhibition of Pseudomonas aeruginosa at compound concentration of 40 mg/mL; assay type: functional

| Structure (SMILES) | Inhibition [mm] |
| --- | --- |
| Nc1ccc(S(N)(=O)=O)cc1 [SULFANILAMIDE] | 13.5 |
| COc1ccc(Cl)cc1C(=O)NCNc1ccc(S(=O)(=O)Nc2ncccn2)cc1 | 7.5 |
| COc1ccc(Cl)cc1C(=O)NCNc1ccc(S(=O)(=O)NN)cc1 | 7.5 |

test system: Escherichia coli; assay: Zone of inhibition Escherichia coli at compound concentration of 40 mg/mL; assay type: functional

| Structure (SMILES) | Inhibition [mm] |
| --- | --- |
| COc1ccc(Cl)cc1C(=O)NCNc1ccc(S(=O)(=O)NN)cc1 | 7 |

test system: Staphylococcus aureus; assay: Zone of inhibition of Staphylococcus aureus at compound concentration of 40 mg/mL; assay type: functional

| Structure (SMILES) | Inhibition [mm] |
| --- | --- |
| Nc1ccc(S(=O)(=O)Nc2ncccn2)cc1 [SULFADIAZINE] | 7 |
| Nc1ccc(S(N)(=O)=O)cc1 [SULFANILAMIDE] | 20.5 |
| COc1ccc(Cl)cc1C(=O)NCNc1ccc(S(=O)(=O)Nc2ncccn2)cc1 | 9.5 |
| COc1ccc(Cl)cc1C(=O)NCNc1ccc(S(=O)(=O)NN)cc1 | 7.5 |
